Measurements: patent publication US20090233342A1, “HETEROLOGOUS EXPRESSION OF PROTEORHODOPSIN PHOTOSYSTEM” (priority 2007, published 2009)

How the values were obtained:
[1] = tested on: HF10—19P19 cells; assay: Proton-pumping assay (light-driven pH change of cell suspension); format: cell-based, Escherichia coli; settings: PR^+ HF10—19P19 cells; CCCP 25 μM (2 h dark preincubation), DCCD 1 mM (20 h dark preincubation)
Protocol: FIG. 3. Light-activated, PR-enabled photophosphorylation in E. coli. (A) Diagram of the proposed mechanism of PR-dependent ATP synthesis. The effects of the inhibitors used are indicated. (B) Proton-pumping assays with HF10—19P19 cells. pH measurements are expressed as the pH change respect to the pH at time 0 for each sample. CCCP, 25 μM; DCCD, 1 mM. Gray boxes indicate dark periods. (C) ATP assays with HF10—19P19 cells. Results are expressed as the difference between the ATP level in the light and the ATP level in the dark, ΔATP, for each treatment.
Fosmid Library. The HOT—10m fosmid library screened in this work has been described previously (14). It contains DNA from a planktonic sample collected 10 m below the surface at the ALOHA station (22°45′ N, 158°W) of the Hawaii Ocean Time series (HOT) cloned into the copy-controlled pCC1FOS fosmid vector (Epicentre Biotechnologies, Madison, Wis.). The library host, E. coli EPI300 (Epicentre Biotechnologies), supports the copy-control option of pCC1FOS. Screening for PR Expression. High-density colony macroarrays [12,280 clones of the HOT—10m library (ref. 14)] were prepared on a Performa II filter (Genetix Ltd., Boston, Mass.) by using a Q-PixII robot (Genetix Ltd.). […] The color phenotype of individual Tn5-insertion clones was analyzed on LB plates containing chloramphenicol, kanamycin, and 0.02% L-arabinose as above. […]

[2] = tested on: PR^+ E. coli cells; format: cell-based, Escherichia coli; settings: for effect on photophosphorylation (light-driven ATP synthesis, ΔATP light minus dark): PR^+ HF10—19P19 cells, CCCP 25 μM (2 h dark preincubation), DCCD 1 mM (20 h dark preincubation)

Structure (SMILES)	effect on light-driven decrease in pH (PR-catalyzed proton translocation) [1]	effect on photophosphorylation (light-driven ATP synthesis, ΔATP light minus dark) [2]	net gain of ATP by oxidative phosphorylation ([2]; 5 min after addition of 0.2% succinate to PR^+ cells in the dark, data not shown)
N#CC(C#N)=NNc1cccc(Cl)c1 [CCCP, carbonylcyanide m-chlorophenylhydrazone]	completely abolished	completely abolished	–
C(=NC1CCCCC1)=NC1CCCCC1 [DCCD, N,N′-dicyclohexylcarbodiimide]	did not affect	completely abolished	–
O=C(O)CCC(=O)O [succinate]	–	–	9×10^5 ATP molecules per live cell
